From patent publication US12581252B2, “Substituted pyrrolo[3,4-b]pyridines as PI3K-α inhibitors” (Relay Therapeutics, Inc., priority 2020, dated 2026)
pIC50: −log10 of the molar value.

Target: H1047R PIK3CA enzyme (Homo sapiens, UniProt P42336, H1047R)
Assay: ADP-Glo Biochemical PIK3CA Kinase Assay

Sequence of H1047R PIK3CA enzyme (P42336 whole entry H1047R): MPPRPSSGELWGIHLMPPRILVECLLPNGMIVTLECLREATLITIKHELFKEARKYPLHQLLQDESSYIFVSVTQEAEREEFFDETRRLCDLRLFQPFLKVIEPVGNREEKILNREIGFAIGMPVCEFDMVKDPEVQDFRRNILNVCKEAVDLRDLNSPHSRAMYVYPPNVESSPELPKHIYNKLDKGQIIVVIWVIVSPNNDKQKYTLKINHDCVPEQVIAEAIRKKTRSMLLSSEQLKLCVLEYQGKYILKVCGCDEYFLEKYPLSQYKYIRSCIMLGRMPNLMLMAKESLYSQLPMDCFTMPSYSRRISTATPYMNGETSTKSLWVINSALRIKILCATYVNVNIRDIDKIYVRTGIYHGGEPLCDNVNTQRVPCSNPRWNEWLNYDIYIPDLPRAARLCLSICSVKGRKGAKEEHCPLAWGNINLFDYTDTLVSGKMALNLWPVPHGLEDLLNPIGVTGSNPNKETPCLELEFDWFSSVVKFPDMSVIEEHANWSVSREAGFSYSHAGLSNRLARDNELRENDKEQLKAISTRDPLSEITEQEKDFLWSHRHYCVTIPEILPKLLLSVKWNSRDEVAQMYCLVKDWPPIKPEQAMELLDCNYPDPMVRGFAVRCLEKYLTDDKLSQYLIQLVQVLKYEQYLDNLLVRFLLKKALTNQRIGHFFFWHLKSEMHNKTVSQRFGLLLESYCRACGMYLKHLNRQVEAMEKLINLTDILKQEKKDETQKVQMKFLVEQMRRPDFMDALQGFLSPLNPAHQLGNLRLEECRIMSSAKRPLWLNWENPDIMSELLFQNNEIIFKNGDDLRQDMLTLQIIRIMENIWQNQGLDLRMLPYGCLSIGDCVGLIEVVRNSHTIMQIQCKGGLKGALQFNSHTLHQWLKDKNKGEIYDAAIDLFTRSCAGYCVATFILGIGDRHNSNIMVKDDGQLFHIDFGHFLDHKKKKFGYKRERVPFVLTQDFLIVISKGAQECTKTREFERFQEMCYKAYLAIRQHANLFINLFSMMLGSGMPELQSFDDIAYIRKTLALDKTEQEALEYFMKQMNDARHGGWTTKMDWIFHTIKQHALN
Sequence of H1047R PIK3CA enzyme (P27986 whole entry partner): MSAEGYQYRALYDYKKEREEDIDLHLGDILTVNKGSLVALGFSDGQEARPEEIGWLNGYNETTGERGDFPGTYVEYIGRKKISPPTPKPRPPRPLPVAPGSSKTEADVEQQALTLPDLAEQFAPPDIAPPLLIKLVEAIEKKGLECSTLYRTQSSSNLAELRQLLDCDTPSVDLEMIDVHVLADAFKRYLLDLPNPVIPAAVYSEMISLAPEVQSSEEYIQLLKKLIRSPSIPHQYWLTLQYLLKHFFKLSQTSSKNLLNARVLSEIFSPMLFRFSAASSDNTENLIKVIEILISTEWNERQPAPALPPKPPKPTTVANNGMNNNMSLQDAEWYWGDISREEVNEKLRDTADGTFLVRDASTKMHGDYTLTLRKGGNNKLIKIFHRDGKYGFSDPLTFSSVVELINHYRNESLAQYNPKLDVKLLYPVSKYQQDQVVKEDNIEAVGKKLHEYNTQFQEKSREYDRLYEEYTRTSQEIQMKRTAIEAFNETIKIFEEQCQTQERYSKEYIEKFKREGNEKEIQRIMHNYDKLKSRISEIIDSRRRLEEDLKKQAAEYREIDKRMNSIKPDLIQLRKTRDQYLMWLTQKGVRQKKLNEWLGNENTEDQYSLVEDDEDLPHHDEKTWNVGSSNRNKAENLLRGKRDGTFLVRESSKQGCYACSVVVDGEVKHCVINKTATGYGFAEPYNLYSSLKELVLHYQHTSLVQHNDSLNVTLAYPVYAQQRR

Compound | pIC50
O=C(Nc1cc(-c2cnn(S(=O)(=O)C(F)F)c2)cc2c1[C@@H](c1cc(F)ccc1Cl)NC2=O)c1cc(F)cc(C(F)(F)F)c1 [Compound I-2092] | 6.30 to 7.00
O=C(Nc1cc(-c2cnn(S(=O)(=O)C(F)F)c2)cc2c1[C@H](c1cc(F)ccc1Cl)NC2=O)c1cc(F)cc(C(F)(F)F)c1 [Compound I-2093] | ≥ 7.00
O=C(NCCC(O)C(F)(F)F)c1cccc2c1C(c1cc(F)ccc1Cl)NC2=O (stereo not shown) [Compound I-2094] | 4.00 to 5.00
Cn1c(Cl)cc(C(=O)Nc2cc(Br)cc3c2[C@H](c2cc(F)ccc2Cl)NC3=O)cc1=O [Compound I-2095] | 4.00 to 5.00
Cn1c(Cl)cc(C(=O)Nc2cc(Br)cc3c2[C@@H](c2cc(F)ccc2Cl)NC3=O)cc1=O [Compound I-2096] | 4.00 to 5.00
O=C1NC(c2cc(F)ccc2Cl)c2c(C#Cc3ccccc3)cccc21 (stereo not shown) [Compound I-2097] | 4.00 to 5.00
CN(C)S(=O)(=O)c1cc(-c2ccc3ncnn3c2)cc2c1[C@@H](c1cc(F)ccc1Cl)NC2=O [Compound I-2098] | 4.00 to 5.00
CN(C)S(=O)(=O)c1cc(-c2ccc3ncnn3c2)cc2c1[C@H](c1cc(F)ccc1Cl)NC2=O [Compound I-2099] | 4.00 to 5.00
NS(=O)(=O)c1cc(-c2ccc3ncnn3c2)cc2c1[C@@H](c1cc(F)ccc1Cl)NC2=O [Compound I-2100] | 4.00 to 5.00
NS(=O)(=O)c1cc(-c2ccc3ncnn3c2)cc2c1[C@H](c1cc(F)ccc1Cl)NC2=O [Compound I-2101] | 4.00 to 5.00
O=C1NC(c2cc(F)ccc2Cl)c2c(/C=C/c3ccccc3)cccc21 (stereo not shown) [Compound I-2106] | 4.00 to 5.00
Cc1cc(=O)[nH]cc1C(=O)Nc1cc(Br)cc2c1[C@@H](c1cc(F)ccc1Cl)NC2=O [Compound I-2107] | 4.00 to 5.00
Cc1cc(=O)[nH]cc1C(=O)Nc1cc(Br)cc2c1[C@H](c1cc(F)ccc1Cl)NC2=O [Compound I-2108] | 4.00 to 5.00
O=C(Nc1cccc2c1C(CC1CCCC1)NC2=O)c1cc(F)cc(C(F)(F)F)c1 (stereo not shown) [Compound I-2109] | 5.00 to 6.00
O=C1NC(c2cc(F)ccc2Cl)c2c(NC(=O)N3CCn4c(nnc4C(F)(F)F)C3)cccc21 (stereo not shown) [Compound I-2111] | 4.00 to 5.00
O=C(Nc1cccc2c1C(c1cc(F)ccc1Cl)NC2=O)c1ncc(Br)s1 (stereo not shown) [Compound I-2112] | 4.00 to 5.00
CC(C)(O)C12CC(C(=O)Nc3cccc4c3C(c3cc(F)ccc3Cl)NC4=O)(C1)C2 (stereo not shown) [Compound I-2117] | 4.00 to 5.00
O=C1NC(c2cc(F)ccc2Cl)c2c(NC(=O)C34CC(C(O)(C5CC5)C5CC5)(C3)C4)cccc21 (stereo not shown) [Compound I-2118] | 4.00 to 5.00
O=C(CCC(F)(F)F)Nc1cccc2c1[C@@H](c1cc(F)ccc1Cl)NC2=O [Compound I-2119] | 4.00 to 5.00
O=C(CCC(F)(F)F)Nc1cccc2c1[C@H](c1cc(F)ccc1Cl)NC2=O [Compound I-2120] | 4.00 to 5.00
O=C(Nc1cc(OCC2CC2)cc2c1C(c1cc(F)ccc1Cl)NC2=O)c1cc(F)cc(C(F)(F)F)c1 (stereo not shown) [Compound I-2134] | 6.30 to 7.00
O=C1NC(c2cc(F)ccc2Cl)c2c1cc(-c1cnn(C(F)F)c1)cc2-c1cn2ccc(C(F)(F)F)cc2n1 (stereo not shown) [Compound I-2135] | 5.00 to 6.00
O=C1NC(c2cc(F)ccc2Cl)c2c(NC(=O)C3CCCC(O)(C(F)(F)F)C3)cccc21 (stereo not shown) [Compound I-2136] | 4.00 to 5.00
O=C(Nc1cc(-c2ccnc(C(=O)O)c2)cc2c1C(c1cc(F)ccc1Cl)NC2=O)c1cc(F)cc(C(F)(F)F)c1 (stereo not shown) [Compound I-2137] | ≥ 7.00
C[C@@H](CCC(F)(F)F)C(=O)Nc1cccc2c1[C@H](c1cc(F)ccc1Cl)NC2=O [Compound I-2138] | 5.00 to 6.00
C[C@H](CCC(F)(F)F)C(=O)Nc1cccc2c1[C@H](c1cc(F)ccc1Cl)NC2=O [Compound I-2139] | 4.00 to 5.00
C[C@H](CCC(F)(F)F)C(=O)Nc1cccc2c1[C@@H](c1cc(F)ccc1Cl)NC2=O [Compound I-2140] | 4.00 to 5.00
C[C@@H](CCC(F)(F)F)C(=O)Nc1cccc2c1[C@@H](c1cc(F)ccc1Cl)NC2=O [Compound I-2141] | 4.00 to 5.00
